For 27 compounds, IC50 results are on record in patent US12565501B2, “Muscarinic acetylcholine M1 receptor antagonists” (Contineum Therapeutics, Inc., priority 2019, dated 2026).

Where only a bound is given, the exact number is not on record here.

In the assay the target is T1, human M1 receptor (Homo sapiens, UniProt P11229).
T1 sequence (P11229 1-460): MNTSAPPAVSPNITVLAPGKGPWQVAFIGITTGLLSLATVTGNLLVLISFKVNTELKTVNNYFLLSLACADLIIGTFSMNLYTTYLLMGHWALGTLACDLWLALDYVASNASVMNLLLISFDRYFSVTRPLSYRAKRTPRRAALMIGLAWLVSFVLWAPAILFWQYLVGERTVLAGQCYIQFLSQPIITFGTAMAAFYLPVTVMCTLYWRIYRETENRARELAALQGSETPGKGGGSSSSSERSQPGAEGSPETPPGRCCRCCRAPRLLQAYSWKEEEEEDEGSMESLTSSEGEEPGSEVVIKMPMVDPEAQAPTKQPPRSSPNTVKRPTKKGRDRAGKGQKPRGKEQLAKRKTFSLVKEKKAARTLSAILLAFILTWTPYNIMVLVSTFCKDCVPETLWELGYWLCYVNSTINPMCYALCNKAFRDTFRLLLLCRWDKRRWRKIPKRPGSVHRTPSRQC
Nature of the assay: In vitro functional assay of muscarinic acetylcholine receptor activity (aequorin calcium flux, reversal of EC80 acetylcholine response). It is filed as cell-based. The following applies: CHO-K1 cells stably expressing human M1 receptor with aequorin; acetylcholine at EC80; calcium flux (luminescence); read-out: M1 IC50. As to the method: CHO-K1 cells stably expressing human M1 receptor with aequorin (Perkin Elmer) were grown in F12 media (Gibco) containing 10% FBS (ATCC), 0.4 mg/mL geneticin (Sigma-Aldrich) and 0.25 mg/mL Zeocin (Invitrogen). Cells were grown as per the manufacturer's protocol. For compound testing, cells were grown to confluency and detached gently with Accutase (Sigma-Aldrich) followed by centrifugation for 5 min at 150× g. Cells were then re-suspended in assay buffer (i.e. DMEM/F-12 HEPES without phenol red (Invitrogen) with 0.1% BSA (Sigma-Aldrich)) at a density of 5×10^6 cells/ml. Under sterile conditions, 5 μM coelenterazine (Invitrogen) was added to the cells, mixed, then incubated at room temperature protected from light, with gentle agitation, for 4 h.
Primary compound plates were prepared in 100% DMSO in opaque 96-well plates (VWR) and serially diluted in half log increments. Secondary compound plates were prepared at 3× concentration in assay buffer. Compounds were added to white, clear bottom tissue culture treated 96-well plates (Fisher Scientific). Coelenterazine-loaded cells were then added at 5×10^5 cells/well.
Compounds and cells were incubated at room temperature for 30 min in the dark. Acetylcholine at the EC80 concentration was added and calcium flux measured using a FlexStation 3 (Molecular Devices). Sigmoidal dose-response curves were generated by measuring luminescence over 40 sec and calculating the area under the curve. Dose response curves and IC50 values were generated using Prism (GraphPad). Compounds were tested at a final concentration range of 100 μM to […] in 0.1% DMSO.
What is called IC50 is the point on the concentration scale where inhibition reaches its midpoint. Turning to `N#Cc1ccc(N2C3CCC2CN(C(=O)COC2(c4ccc(F)c(F)c4)CCOC2)C3)nc1` (racemic) [Example 269, 6-(3-(2-((3-(3,4-difluorophenyl)tetrahydrofuran-3-yl)oxy)acetyl)-3,8-diazabicyclo [3.2.1]octan-8-yl)nicotinonitrile], the IC50 is 100 to 1000 nM.

On to `COc1ccc(C2(OCC(=O)N3CC4CCC(C3)N4c3ccc(C#N)cn3)CC2)c(F)c1` [Example 223, 6-(3-(2-(1-(2-fluoro-4-methoxyphenyl)cyclopropoxy)acetyl)-3,8-diazabicyclo[3.2.1]octan-8-yl)nicotinonitrile], for which the IC50 is more than 1000 nM.

`COc1ccc(C2(OCC(=O)N3CC4CCC(C3)N4c3ccc(C#N)cn3)CC2)cc1F` [Example 222, 6-(3-(2-(1-(3-fluoro-4-methoxyphenyl)cyclopropoxy)acetyl)-3,8-diazabicyclo[3.2.1]octan-8-yl)nicotinonitrile]: the IC50 lay within 1000 to 10000 nM.

As to `COc1cc([C@H](C)NCC(=O)N2C[C@H]3CC[C@@H](C2)N3c2ccc(C#N)cn2)ccn1` [Example 93, 6-(3-(((S)-1-(2-methoxypyridin-4-yl)ethyl)glycyl)-3,8-diazabicyclo[3.2.1]octan-8-yl)nicotinonitrile], the IC50 was less than 10 nM.

Take `COc1cc(C2(OCC(=O)N3CC4CCC(C3)N4c3ccc(C#N)cn3)COC2)ccn1` [Example 244, 6-(3-(2-((3-(2-methoxypyridin-4-yl)oxetan-3-yl)oxy)acetyl)-3,8-diazabicyclo[3.2.1]octan-8-yl)nicotinonitrile]: the IC50 was 1000 to 10000 nM.

As for `COc1ccc(Br)c(C2(OCC(=O)N3CC4CCC(C3)N4c3ccc(C#N)cn3)CC2)c1` [Example 226, 6-(3-(2-(1-(2-bromo-5-methoxyphenyl)cyclopropoxy)acetyl)-3,8-diazabicyclo[3.2.1]octan-8-yl)nicotinonitrile], the IC50 is less than 10 nM.

Turning to `N#Cc1ccc(N2C3CCC2CN(C(=O)CNC2(c4ccccc4Br)CC2)C3)nc1` [Example 101, 6-(3-((1-(2-bromophenyl)cyclopropyl)glycyl)-3,8-diazabicyclo[3.2.1]octan-8-yl)nicotinonitrile], the IC50 was 10 to 100 nM.

`COc1cc(C(C)NCC(=O)N2CC3CCC(C2)N3c2ccc(C#N)cn2)ccc1F` (racemic) [Example 57, 6-(3-((1-(4-fluoro-3-methoxyphenyl)ethyl)glycyl)-3,8-diazabicyclo[3.2.1]octan-8-yl)nicotinonitrile]: the IC50 was less than 10 nM.

As to `N#Cc1ccc(N2C3CCC2CN(C(=O)CCNC(CO)c2ccc(F)cc2)C3)nc1` [Example 130, 6-((3-(3-(((R)-1-(4-fluorophenyl)-2-hydroxyethyl)amino)propanoyl)-3,8-diazabicyclo[3.2.1]octan-8-yl)nicotinonitrile], the IC50 was more than 1000 nM.

Take `N#Cc1ccc(N2C3CCC2CN(C(=O)COC2(c4ccc(F)c(Br)c4)CC2)C3)nc1` [Example 215, 6-(3-(2-(1-(3-bromo-4-fluorophenyl)cyclopropoxy)acetyl)-3,8-diazabicyclo[3.2.1]octan-8-yl)nicotinonitrile]: the IC50 lay within 10 to 100 nM.

For `COc1cc(C2(OCC(=O)N3CC4CCC(C3)N4c3ccc(C#N)cn3)CCC2)ncn1` [Example 263, 6-(3-(2-(1-(6-methoxypyrimidin-4-yl)cyclobutoxy)acetyl)-3,8-diazabicyclo[3.2.1]octan-8-yl)nicotinonitrile], the IC50 was in the range of 10 to 100 nM.

In the case of `N#Cc1cc(N2[C@@H]3CC[C@H]2CN(C(=O)CCNC2(c4ccc(F)c(F)c4)CC2)C3)ccn1` [Example 43, 4-(3-(3-((1-(3,4-difluorophenyl)cyclopropyl)amino)propanoyl)-3,8-diazabicyclo[3.2.1]octan-8-yl)picolinonitrile], the IC50 was 10 to 100 nM.

Consider `CC(SCCC(=O)N1CC2CCC(C1)N2c1ccc(C#N)cn1)c1ccccc1` (racemic) [Example 134, 6-(3-(3-((1-phenylethyl)thio)propanoyl)-3,8-diazabicyclo[3.2.1]octan-8-yl)nicotinonitrile], for which the IC50 lay in the range of 100 to 1000 nM.

`N#Cc1ccc(N2C3CCC2CN(C(=O)CCNC(c2ccc(F)c(F)c2)C(F)F)C3)nc1` (racemic) [Example 129, 6-(3-(3-((1-(3,4-difluorophenyl)-2,2-difluoroethyl)amino)propanoyl)-3,8-diazabicyclo[3.2.1]octan-8-yl)nicotinonitrile]: the IC50 was less than 10 nM.

Consider `N#Cc1ccc(N2C3CCC2CN(C(=O)COC2(c4cncnc4)CCC2)C3)nc1` [Example 262, 6-(3-(2-(1-(pyrimidin-5-yl)cyclobutoxy)acetyl)-3,8-diazabicyclo[3.2.1]octan-8-yl)nicotinonitrile], for which the IC50 was in the range of 100 to 1000 nM.

Regarding `N#Cc1ccc(N2C3CCC2CN(C(=O)CCNC2(c4cccc(C#N)c4)CC2)C3)nc1` [Example 13, 6-(3-(3-((1-(3-cyanophenyl)cyclopropyl)amino)propanoyl)-3,8-diazabicyclo[3.2.1]octan-8-yl)nicotinonitrile], the IC50 fell in the range of 10 to 100 nM.

On to `CC(OCC(=O)N1CC2CCC(C1)N2c1ccc(C#N)cn1)c1cccc2ncnn12` (racemic) [Example 191, 6-(3-(2-(1-([1,2,4]triazolo[1,5-a]pyridin-5-yl)ethoxy)acetyl)-3,8-diazabicyclo[3.2.1]octan-8-yl)nicotinonitrile], for which the IC50 lay within 10 to 100 nM.

Consider `N#Cc1ccc(N2C3CCC2CN(C(=O)COC2(c4cc(F)ccc4Br)CC2)C3)nc1` [Example 220, 6-(3-(2-(1-(2-bromo-5-fluorophenyl)cyclopropoxy)acetyl)-3,8-diazabicyclo[3.2.1]-8-yl)nicotinonitrile], for which the IC50 was less than 10 nM.

Turning to `N#Cc1ccc(N2[C@@H]3CC[C@H]2CN(C(=O)CCNC2(c4ccc(F)cc4)CC2)C3)nc1` [Example 5, 6-(3-(3-((1-(4-fluorophenyl)cyclopropyl)amino)propanoyl)-3,8-diazabicyclo[3.2.1]octan-8-yl)nicotinonitrile], the IC50 fell in the range of 10 to 100 nM.

As for `N#Cc1ccc(N2C3CCC2CN(C(=O)CNC2(c4cccc(OC(F)(F)F)c4)CCC2)C3)nc1` [Example 119, 6-(3-((1-(3-(trifluoromethoxy)phenyl)cyclobutyl)glycyl)-3,8-diazabicyclo[3.2.1]octan-8-yl)nicotinonitrile], the IC50 was 100 to 1000 nM.

As to `Cc1noc(C)c1C(F)(F)CCC(=O)N1CC2CCC(C1)N2c1ccc(C#N)cn1` [Example 126, 6-(3-(4-(3,5-dimethylisoxazol-4-yl)-4,4-difluorobutanoyl)-3,8-diazabicyclo[3.2.1]octan-8-yl)nicotinonitrile], the IC50 was less than 10 nM.

With `COc1cncc(C2(OCC(=O)N3CC4CCC(C3)N4c3ccnc(C#N)c3)CCC2)c1` [Example 281, 4-(3-(2-(1-(5-methoxypyridin-3-yl)cyclobutoxy)acetyl)-3,8-diazabicyclo[3.2.1]octan-8-yl)picolinonitrile], the IC50 is less than 10 nM.

For `N#Cc1ccc(N2C3CCC2CN(C(=O)COC2(c4ccncc4F)CC2)C3)nc1` [Example 228, 6-(3-(2-(1-(3-fluoropyridin-4-yl)cyclopropoxy)acetyl)-3,8-diazabicyclo[3.2.1]octan-8-yl)nicotinonitrile], the IC50 was in the range of 10 to 100 nM.

In the case of `N#Cc1ccc(N2C[C@H]3CC[C@@H]2CN3C(=O)CNC2(c3ccc(F)cc3F)CC2)nc1` [Example 81, 6-((1R,4R)-5-((1-(2,4-difluorophenyl)cyclopropyl)glycyl)-2,5-diazabicyclo[2.2.2]octan-2-yl)nicotinonitrile], the IC50 is more than 1000 nM.

Consider `CC1c2ccccc2CCN1CC(=O)N1CC2CCC(C1)N2c1ccc(C#N)cn1` (racemic) [Example 106, 6-(3-(2-(1-methyl-3,4-dihydroisoquinolin-2(1H)-yl)acetyl)-3,8-diazabicyclo[3.2.1]octan-8-yl)nicotinonitrile], for which the IC50 is 100 to 1000 nM.

For the compound `N#Cc1ccc(N2[C@@H]3CC[C@H]2CN(C(=O)/C=C/C(F)(F)c2cccn4ncnc24)C3)nc1` [Example 146, 6-(3-((E)-4-([1,2,4]triazolo[1,5-a]pyridin-8-yl)-4,4-difluorobut-2-enoyl)-3,8-diazabicyclo[3.2.1]octan-8-yl)nicotinonitrile], the IC50 was less than 10 nM.

Regarding `COc1cncc(C(F)(F)CCC(=O)N2CC3CCC(C2)N3c2ccc(C#N)cn2)c1` [Example 160, 6-(3-(4,4-difluoro-4-(5-methoxypyridin-3-yl)butanoyl)-3,8-diazabicyclo[3.2.1]octan-8-yl)nicotinonitrile], the IC50 was less than 10 nM.
